Results published in ChEMBL document CHEMBL1151921 (Bioorg Med Chem, 2009).

Legend:
D(2) dopamine receptor = D(2) dopamine receptor (Rattus norvegicus, UniProt P61169); experiment: Displacement of [3H]spiperone from rat dopamine D2L receptor expressed in HEK293 cells; type: cell-based
D(3) dopamine receptor = D(3) dopamine receptor (Rattus norvegicus, UniProt P19020); experiment: biochemical
[1] = target: D(2) dopamine receptor (Homo sapiens) (UniProt P14416); experiment: Activity at human dopamine D2L receptor expressed in CHO cells assessed as stimulation of [35S]GTPgammaS binding relative to dopamine; type: functional, cell-based
D(2) dopamine receptor (Homo sapiens), sequence (P14416 whole entry): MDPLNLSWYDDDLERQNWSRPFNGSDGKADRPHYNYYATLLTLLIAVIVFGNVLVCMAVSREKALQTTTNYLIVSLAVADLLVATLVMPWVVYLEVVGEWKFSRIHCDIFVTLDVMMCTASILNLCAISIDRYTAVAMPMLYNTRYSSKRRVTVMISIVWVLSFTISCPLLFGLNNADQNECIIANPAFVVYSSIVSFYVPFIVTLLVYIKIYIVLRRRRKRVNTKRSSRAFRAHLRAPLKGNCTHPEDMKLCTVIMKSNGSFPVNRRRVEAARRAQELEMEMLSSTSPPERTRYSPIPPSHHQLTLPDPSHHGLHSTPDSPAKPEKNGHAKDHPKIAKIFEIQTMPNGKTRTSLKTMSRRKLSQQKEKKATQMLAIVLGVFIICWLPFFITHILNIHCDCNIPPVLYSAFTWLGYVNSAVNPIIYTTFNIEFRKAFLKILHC

D(2) dopamine receptor, sequence (P61169 whole entry): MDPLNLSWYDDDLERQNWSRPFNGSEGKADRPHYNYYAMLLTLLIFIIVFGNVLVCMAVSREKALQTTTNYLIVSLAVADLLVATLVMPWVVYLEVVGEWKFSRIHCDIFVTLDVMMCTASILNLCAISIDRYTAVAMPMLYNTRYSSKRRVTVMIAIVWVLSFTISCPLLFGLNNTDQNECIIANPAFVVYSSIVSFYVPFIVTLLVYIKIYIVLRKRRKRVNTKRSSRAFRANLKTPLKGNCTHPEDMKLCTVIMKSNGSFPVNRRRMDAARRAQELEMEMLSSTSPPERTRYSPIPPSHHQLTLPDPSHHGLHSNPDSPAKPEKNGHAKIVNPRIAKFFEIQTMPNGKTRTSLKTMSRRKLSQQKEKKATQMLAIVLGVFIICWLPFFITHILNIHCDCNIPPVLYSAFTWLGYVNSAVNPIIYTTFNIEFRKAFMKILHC
D(3) dopamine receptor, sequence (P19020 whole entry): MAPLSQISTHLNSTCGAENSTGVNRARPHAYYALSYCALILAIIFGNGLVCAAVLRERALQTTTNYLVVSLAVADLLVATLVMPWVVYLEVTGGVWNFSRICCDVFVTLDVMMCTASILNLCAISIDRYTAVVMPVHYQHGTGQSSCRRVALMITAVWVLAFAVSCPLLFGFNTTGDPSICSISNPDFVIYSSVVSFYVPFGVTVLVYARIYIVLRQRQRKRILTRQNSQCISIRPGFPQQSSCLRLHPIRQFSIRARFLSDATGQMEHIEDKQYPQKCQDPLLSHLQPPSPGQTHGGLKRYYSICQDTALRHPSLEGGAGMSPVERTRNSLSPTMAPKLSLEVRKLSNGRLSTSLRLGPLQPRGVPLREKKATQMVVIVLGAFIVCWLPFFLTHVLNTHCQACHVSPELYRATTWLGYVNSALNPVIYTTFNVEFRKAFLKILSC

SMILES	Ki (D(2) dopamine receptor) [nM]	Ki (D(3) dopamine receptor) [nM]	Emax [1] [%]
CCCN(CCN1CCN(c2ccc(-c3ccccc3)cc2)CC1)[C@H]1CCc2nc(N)sc2C1	264		
CCCN(CCN1CCN(Cc2cc3ccccc3[nH]2)CC1)C1CCc2ccc(O)cc2C1 (stereo not drawn)	100	4.82	
CCCN(CCN1CCN(C(=O)c2cc3ccccc3o2)CC1)C1CCc2c(O)cccc2C1 (stereo not drawn)	132	5.23	
CCCN(CCN1CCN(C(=O)c2ccc3[nH]ccc3c2)CC1)C1CCc2ccc(O)cc2C1 (stereo not drawn)	65.9		
CCCN(CCN1CCN(C(=O)c2ccc3[nH]ccc3c2)CC1)[C@H]1CCc2c(O)cccc2C1			80
CCCN(CCC)C1CCc2c(O)cccc2C1 (stereo not drawn)			77.8
